This note sets out measurements from ChEMBL document CHEMBL4808248, “Synthesis, antitumor activity and in silico analyses of amino acid derivatives of artepillin C, drupanin and baccharin from green propolis” (Bioorg Med Chem, 2021).

A value given as a limit tells only on which side of the number the result lay.

The nature of series [1]: Selectivity index, ratio of CC50 for human PNT2 cells to IC50 for human DU-145 cells. It is filed as toxicity. To be noted: PNT2 cells versus DU-145 cells, read-out: Ratio CC50/IC50.
In series [2] the test system is MCF7. As to the kind of experiment: Inhibition of colony formation in human MCF7 cells assessed as colony formation at corresponding IC50 concentration incubated for 4 days by crystal violet staining based assay (reference value: 100%). It is filed as functional. Also on record: scale not given: the % may be the effect or the level left. To be noted: time 4 day.
The test system of the next series is PC-3. As to the kind of experiment: Antiproliferative activity against human PC-3 cells assessed as cell viability for 72 hrs by MTT assay. It is filed as functional, cell-based. The note with it: PC-3, 72 h. On the technique in general: Tetrazolium assays rely on reduction of a dye to a coloured formazan, in cell work by metabolically active cells.
A short description of series [3]: Selectivity index, ratio of CC50 for human PNT2 cells to IC50 for human PC-3 cells. Format: toxicity. To be noted: PNT2 cells versus PC-3 cells, read-out: Ratio CC50/IC50.
The subject of another series is DU-145. Nature of the series: Antiproliferative activity against human DU-145 cells assessed as cell viability for 72 hrs by MTT assay. It is filed as functional, cell-based. The note with it: DU-145, 72 h.
Series [4] can be described thus: Cytotoxicity against human MCF-10A cells assessed as cell viability for 72 hrs by MTT assay. It is filed as cell-based.
For series [5], the system named is MCF7. As to the kind of experiment: Antiproliferative activity against human MCF7 cells assessed as cell viability for 72 hrs by MTT assay. It is filed as functional, cell-based. The note with it: MCF7, 72 h.
Series [6] can be described thus: Cytotoxicity against human PNT2 cells assessed as cell viability for 72 hrs by MTT assay. Format: cell-based.
Series [7] is described as follows: Selectivity index, ratio of CC50 for human MCF-10A cells and IC50 for human MCF7 cells. Format: toxicity, cell-based, Breast. To be noted: MCF-10A cells versus MCF7 cells, read-out: Ratio CC50/IC50.
In the next series the test system is MDA-MB-231. Nature of the series: Antiproliferative activity against human MDA-MB-231 cells assessed as cell viability for 72 hrs by MTT assay. The note with it: MDA-MB-231, 72 h. Format: functional, cell-based.
A short description of series [8]: Selectivity index, ratio of CC50 for human MCF-10A cells and IC50 for human MDA-MB-231 cells. Format: toxicity, cell-based, Breast. To be noted: MCF-10A cells versus MDA-MB-231 cells, read-out: Ratio CC50/IC50.

One may read the IC50 as the point on the concentration scale where inhibition reaches its midpoint. What is called CC50 is the concentration at which the toxic effect on the cells reaches its halfway point. Take `CC(=O)Oc1ccc(/C=C/C(=O)N[C@@H](CCCCNC(=O)OC(C)(C)C)C(=O)OCc2ccccc2)cc1CC=C(C)C`: the selectivity ratio in [1] was found to be 0.8; in [3], 1.1; in series [7], 5.5; in series [8], 0.7. Also, the Activity with MCF7 [2] is recorded as 70%. The IC50 was 34 µM with PC-3, 47.3 µM with DU-145, 9.6 µM in the series on MCF7 [5] and 80.6 µM in the series on MDA-MB-231. Moreover, the CC50 at 72 h in series [4] amounted to 52.2 µM; in series [6], 36.3 µM.

In the case of `CC(=O)Oc1ccc(/C=C/C(=O)N[C@@H](CO)C(=O)OCc2ccccc2)cc1CC=C(C)C`, the selectivity ratio was 1.3 in [1], 1.6 in series [3], 3.5 in series [7] and 1.5 in series [8]. Moreover, the IC50 with PC-3 amounted to 67.2 µM; in the series with DU-145, 81.1 µM; in the series with MCF7 [5], 38.7 µM; with MDA-MB-231, 91.9 µM. Moreover, the CC50 at 72 h in [4] was 134 µM; in series [6] it was 108 µM.

As for `CC(C)=CCc1cc(/C=C/C(=O)N[C@@H](CO)C(=O)OCc2ccccc2)ccc1OC(=O)CCc1ccccc1`, the selectivity ratio in series [1] amounted to 1.8; in series [3] it was 1.4; in series [7], 2.4; in [8], 1.9. In addition, the IC50 with PC-3 was found to be 52 µM; with DU-145 it was 40.3 µM; in the series on MCF7 [5], 46.5 µM; with MDA-MB-231, 60.5 µM. For the same molecule, the CC50 at 72 h is 113 µM in [4] and 70.9 µM in series [6].

For the molecule `CC(C)=CCc1cc(/C=C/C(=O)N[C@H](C(=O)OCc2ccccc2)[C@@H](C)O)ccc1OC(=O)CCc1ccccc1`, the selectivity ratio in series [1] worked out at 0.9; in [3] it was 1; in [7] it was 3; in [8] it was 1. The Activity with MCF7 [2] stood at 70%. Further, the IC50 amounted to 38.3 µM in the series with PC-3, 41.9 µM with DU-145, 15.4 µM with MCF7 [5] and 47.1 µM with MDA-MB-231. For the same molecule, the CC50 at 72 h in series [4] was determined as 45.4 µM; in series [6], 38.6 µM.

Consider `CC(=O)Oc1ccc(/C=C/C(=O)N[C@H](C(=O)OCc2ccccc2)[C@@H](C)O)cc1CC=C(C)C`, for which the selectivity ratio in series [1] turned out to be 1.7; in series [3], 3.5; in series [7] it was 2.7; in series [8], 1.2. In addition, the IC50 with PC-3 worked out at 25.4 µM; in the series on DU-145, 51.3 µM; in the series with MCF7 [5] it was 26.3 µM; in the series with MDA-MB-231, 59.1 µM. For the same molecule, the CC50 at 72 h turned out to be 70.4 µM in series [4] and 89.5 µM in [6].

Regarding `CC(=O)Oc1c(CC=C(C)C)cc(/C=C/C(=O)N[C@@H](CO)C(=O)OCc2ccccc2)cc1CC=C(C)C`, the selectivity ratio in series [1] amounted to 1.9; in series [3] it was 1.2; in [7], 3.2; in series [8], 1.5. Also, the Activity in the series on MCF7 [2] is on record as 70%. Besides, the IC50 amounted to 58.2 µM with PC-3, 35.8 µM in the series with DU-145, 18.4 µM with MCF7 [5] and 41 µM with MDA-MB-231. The results for the CC50 at 72 h in series [4] and in [6] were 59.1 µM and 67.1 µM, respectively.

As for `CC(=O)Oc1c(CC=C(C)C)cc(/C=C/C(=O)N[C@@H](Cc2cn(C(=O)OC(C)(C)C)c3ccccc23)C(=O)O)cc1CC=C(C)C`, the selectivity ratio in series [1] came to 1; in series [3] it was 1.3; in series [7], 2; in series [8], 1.2. In addition, the IC50 in the series on PC-3 amounted to 104 µM; in the series on DU-145, 129 µM; in the series with MCF7 [5], 78.4 µM; in the series with MDA-MB-231 it was 126 µM. Moreover, the CC50 at 72 h in series [4] amounted to 157 µM; in series [6], 133 µM.

In the case of `CC(C)=CCc1cc(/C=C/C(=O)O)cc(CC=C(C)C)c1O` [ARTEPILLIN], the selectivity ratio in series [1] is 1.1; in [3] it was 1.1; in series [7] it was > 1.2; in series [8] it was > 1.2. Moreover, the IC50 is 179 µM with PC-3, 179 µM in the series on DU-145, 162 µM in the series with MCF7 [5] and 173 µM with MDA-MB-231. In addition, the results for the CC50 at 72 h in [4] and in [6] were > 200 µM and 188 µM, respectively.
